Test results taken from US12559492B2, “BRAF degraders” (C4 Therapeutics, Inc., priority 2020, dated 2026).
Where two headings read alike, the source gives them in different places.

Target: BRAF^V600E protein (Homo sapiens, UniProt P15056, V600E)
Experiment: HiBiT cellular BRAF V600E degradation assay
Format: cell-based
Details: for DC50: A375.10 cells (HiBiT tag knocked in at N-terminal of BRAF V600E), concentration at which 50% of total cellular BRAF V600E is degraded; for Emax: read-out: HiBit 24 h Emax
[1] = A375.10 cells, 24 h incubation, Emax = amount of residual protein remaining in the cell after compound treatment

Chain of BRAF^V600E protein (P15056 whole entry V600E): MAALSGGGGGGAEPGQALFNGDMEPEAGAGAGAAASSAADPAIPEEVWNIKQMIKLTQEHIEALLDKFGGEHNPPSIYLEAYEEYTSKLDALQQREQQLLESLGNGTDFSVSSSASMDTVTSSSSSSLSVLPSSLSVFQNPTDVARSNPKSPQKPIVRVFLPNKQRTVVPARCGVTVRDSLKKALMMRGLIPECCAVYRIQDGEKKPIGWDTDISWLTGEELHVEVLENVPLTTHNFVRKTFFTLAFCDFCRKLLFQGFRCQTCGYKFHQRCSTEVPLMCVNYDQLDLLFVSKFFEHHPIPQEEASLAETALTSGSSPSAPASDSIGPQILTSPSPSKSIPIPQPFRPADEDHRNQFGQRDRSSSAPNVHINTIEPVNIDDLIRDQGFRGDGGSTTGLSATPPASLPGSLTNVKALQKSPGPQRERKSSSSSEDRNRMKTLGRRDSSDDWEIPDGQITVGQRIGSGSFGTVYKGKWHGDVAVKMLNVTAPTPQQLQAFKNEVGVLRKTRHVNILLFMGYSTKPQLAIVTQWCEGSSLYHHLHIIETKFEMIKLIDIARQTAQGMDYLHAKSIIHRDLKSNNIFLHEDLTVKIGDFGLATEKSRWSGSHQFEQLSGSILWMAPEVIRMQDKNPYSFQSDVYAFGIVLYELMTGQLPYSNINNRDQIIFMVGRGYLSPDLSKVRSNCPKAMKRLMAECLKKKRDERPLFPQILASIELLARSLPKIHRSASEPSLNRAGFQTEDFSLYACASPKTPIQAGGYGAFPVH

| SMILES | DC50 (24 h incubation) [nM] | Emax [1] [%] | HiBit 24 h Emax [1] [%] | Emax [%] |
| --- | --- | --- | --- | --- |
| CCN(C)S(=O)(=O)Nc1ccc(F)c(C(=O)c2c[nH]c3ncc(-c4cnc(N5CCN(C(=O)CC6(O)CCN(c7ccc(NC8CCC(=O)NC8=O)cn7)CC6)CC5)nc4)cc23)c1F (stereo not drawn) [Example 57, 5-[2-[4-[2-[1-[5-[(2,6-dioxo-3-piperidyl)amino]-2-pyridyl]-4-hydroxy-4-piperidyl]acetyl]piperazin-1-yl]pyrimidin-5-yl]-3-[3-[[ethyl(methyl)sulfamoyl]amino]-2,6-difluoro-benzoyl]-1H-pyrrolo[2,3-b]pyridine] | 10.1 | 18.2 | – | – |
| CCN(C)S(=O)(=O)Nc1ccc(F)c(C(=O)c2c[nH]c3ncc(-c4cnc(N5CCN(C(=O)CC6(O)CCN(c7ncc(NC8CCC(=O)NC8=O)cc7F)CC6)CC5)nc4)cc23)c1F (stereo not drawn) [Example 58, 5-[2-[4-[2-[1-[5-[(2,6-dioxo-3-piperidyl)amino]-3-fluoro-2-pyridyl]-4-hydroxy-4-piperidyl]acetyl]piperazin-1-yl]pyrimidin-5-yl]-3-[3-[[ethyl(methyl)sulfamoyl]amino]-2,6-difluoro-benzoyl]-1H-pyrrolo[2,3-b]pyridine] | 4.25 | 9.42 | – | – |
| CCN(C)S(=O)(=O)Nc1ccc(F)c(C(=O)c2c[nH]c3ncc(-c4cnc(N5CCN(C(=O)CC6(O)CCN(c7ccc(NC8CCC(=O)NC8=O)cc7F)CC6)CC5)nc4)cc23)c1F (stereo not drawn) [Example 59, 5-[2-[4-[2-[1-[4-[(2,6-dioxo-3-piperidyl)amino]-2-fluoro-phenyl]-4-hydroxy-4-piperidyl]acetyl]piperazin-1-yl]pyrimidin-5-yl]-3-[3-[[ethyl(methyl)sulfamoyl]amino]-2,6-difluoro-benzoyl]-1H-pyrrolo[2,3-b]pyridine] | 2.41 | 8.84 | – | – |
| CCN(C)S(=O)(=O)Nc1ccc(F)c(C(=O)c2c[nH]c3ncc(-c4cnc(N5CCN(C(=O)CN6CCC(c7ccc8c(N9CCC(=O)NC9=O)nn(C)c8c7)C(F)(F)C6)CC5)nc4)cc23)c1F (stereo not drawn) [Example 61, 3-(2,4-dioxohexahydropyrimidin-1-yl)-6-[1-[2-[4-[5-[3-[3-[[ethyl(methyl)sulfamoyl]amino]-2,6-difluoro-benzoyl]-1H-pyrrolo[2,3-b]pyridin-5-yl]pyrimidin-2-yl]piperazin-1-yl]-2-oxo-ethyl]-3,3-difluoro-4-piperidyl]-1-methyl-indazole] | 3.75 | 7.83 | – | – |
| CCN(C)S(=O)(=O)Nc1ccc(F)c(C(=O)c2c[nH]c3ncc(-c4cnc(N5CCCN(C(=O)CN6CCC(c7ccc(NC8CCC(=O)NC8=O)cc7)CC6)CC5)nc4)cc23)c1F (stereo not drawn) [Example 63, 5-[2-[4-[2-[4-[4-[(2,6-dioxo-3-piperidyl)amino]phenyl]-1-piperidyl]acetyl]-1,4-diazepan-1-yl]pyrimidin-5-yl]-3-[3-[[ethyl(methyl)sulfamoyl]amino]-2,6-difluoro-benzoyl]-1H-pyrrolo[2,3-b]pyridine] | 40.2 | 11.8 | – | – |
| CCN(C)S(=O)(=O)Nc1ccc(F)c(C(=O)c2c[nH]c3ncc(-c4cnc(N5CC6(CN(C(=O)CN7CCC(c8ccc(NC9CCC(=O)NC9=O)cc8)CC7)C6)C5)nc4)cc23)c1F (stereo not drawn) [Example 64, 5-[2-[2-[2-[4-[4-[(2,6-dioxo-3-piperidyl)amino]phenyl]-1-piperidyl]acetyl]-2,6-diazaspiro[3.3]heptan-6-yl]pyrimidin-5-yl]-3-[3-[[ethyl(methyl)sulfamoyl]amino]-2,6-difluoro-benzoyl]-1H-pyrrolo[2,3-b]pyridine] | 7.21 | 9.33 | – | – |
| CCN(C)S(=O)(=O)Nc1ccc(F)c(C(=O)c2c[nH]c3ncc(-c4cnc(N5CCN(C(=O)CN6CCC(c7ccc(NC8CCC(=O)NC8=O)cc7)CC6)CC5)nc4)c(C)c23)c1F (stereo not drawn) [Example 65, 5-[2-[4-[2-[4-[4-[(2,6-dioxo-3-piperidyl)amino]phenyl]-1-piperidyl]acetyl]piperazin-1-yl]pyrimidin-5-yl]-3-[3-[[ethyl(methyl)sulfamoyl]amino]-2,6-difluoro-benzoyl]-4-methyl-1H-pyrrolo[2,3-b]pyridine] | 9.97 | 3.79 | – | – |
| CCN(C)S(=O)(=O)Nc1ccc(F)c(C(=O)c2c[nH]c3ncc(-c4cnc(N5CCN(C(=O)CN6CCC(c7ccc(NC8CCC(=O)NC8=O)cc7)CC6)CC5)nc4)c(F)c23)c1F (stereo not drawn) [Example 66, 5-[2-[4-[2-[4-[4-[(2,6-dioxo-3-piperidyl)amino]phenyl]-1-piperidyl]acetyl]piperazin-1-yl]pyrimidin-5-yl]-3-[3-[[ethyl(methyl)sulfamoyl]amino]-2,6-difluoro-benzoyl]-4-fluoro-1H-pyrrolo[2,3-b]pyridine] | 3.06 | 8.1 | – | – |
| CCN(C)S(=O)(=O)Nc1ccc(F)c(C(=O)c2c[nH]c3ncc(-c4ccc(N5CCN(C(=O)CN6CCC(c7ccc(O[C@H]8CCC(=O)NC8=O)cc7)CC6)CC5)nc4)cc23)c1F [Example 73, 5-[6-[4-[2-[4-[4-[[(3S)-2,6-dioxo-3-piperidyl]oxy]phenyl]-1-piperidyl]acetyl]piperazin-1-yl]-3-pyridyl]-3-[3-[[ethyl(methyl)sulfamoyl]amino]-2,6-difluoro-benzoyl]-1H-pyrrolo[2,3-b]pyridine] | 12.3 | – | 8.05 | – |
| CCN(C)S(=O)(=O)Nc1ccc(F)c(C(=O)c2c[nH]c3ncc(-c4ccc(N5CCN(C(=O)CN6CCC(c7ccc(O[C@@H]8CCC(=O)NC8=O)cc7)CC6)CC5)nc4)cc23)c1F [Example 74, 5-[6-[4-[2-[4-[4-[[(3R)-2,6-dioxo-3-piperidyl]oxy]phenyl]-1-piperidyl]acetyl]piperazin-1-yl]-3-pyridyl]-3-[3-[[ethyl(methyl)sulfamoyl]amino]-2,6-difluoro-benzoyl]-1H-pyrrolo[2,3-b]pyridine] | 32.5 | – | 9.07 | – |
| CCN(C)S(=O)(=O)Nc1ccc(F)c(C(=O)c2c[nH]c3ncc(-c4ccc(N5CCN(C(=O)CN6CCC(Nc7ccc8c(C9CCC(=O)NC9=O)nn(C)c8c7)CC6)CC5)nc4)cc23)c1F (stereo not drawn) [Example 75, 3-(2,6-dioxo-3-piperidyl)-6-[[1-[2-[4-[5-[3-[3-[[ethyl(methyl)sulfamoyl]amino]-2,6-difluoro-benzoyl]-1H-pyrrolo[2,3-b]pyridin-5-yl]-2-pyridyl]piperazin-1-yl]-2-oxo-ethyl]-4-piperidyl]amino]-1-methyl-indazole] | 6.26 | 11.6 | – | – |
| CCN(C)S(=O)(=O)Nc1ccc(F)c(C(=O)c2c[nH]c3ncc(-c4ccc(N5CCN(C(=O)CC6(O)CCN(c7ccc(NC8CCC(=O)NC8=O)cc7)CC6)CC5)nc4)cc23)c1F (stereo not drawn) [Example 76, 5-[6-[4-[2-[1-[4-[(2,6-dioxo-3-piperidyl)amino]phenyl]-4-hydroxy-4-piperidyl]acetyl]piperazin-1-yl]-3-pyridyl]-3-[3-[[ethyl(methyl)sulfamoyl]amino]-2,6-difluoro-benzoyl]-1H-pyrrolo[2,3-b]pyridine] | 7.81 | 14.2 | – | – |
| CCN(C)S(=O)(=O)Nc1ccc(F)c(C(=O)c2c[nH]c3ncc(-c4ccc(N5CCN(C(=O)CC6(O)CCN(c7ccc(NC8CCC(=O)NC8=O)cn7)CC6)CC5)nc4)cc23)c1F (stereo not drawn) [Example 78, 5-[6-[4-[2-[1-[5-[(2,6-dioxo-3-piperidyl)amino]-2-pyridyl]-4-hydroxy-4-piperidyl]acetyl]piperazin-1-yl]-3-pyridyl]-3-[3-[[ethyl(methyl)sulfamoyl]amino]-2,6-difluoro-benzoyl]-1H-pyrrolo[2,3-b]pyridine] | 9.89 | 23.3 | – | – |
| CCN(C)S(=O)(=O)Nc1ccc(F)c(C(=O)c2c[nH]c3ncc(-c4ccc(N5CCN(C(=O)CC6(O)CCN(c7ccc(NC8CCC(=O)NC8=O)cc7F)CC6)CC5)nc4)cc23)c1F (stereo not drawn) [Example 79, 5-[6-[4-[2-[1-[4-[(2,6-dioxo-3-piperidyl)amino]-2-fluoro-phenyl]-4-hydroxy-4-piperidyl]acetyl]piperazin-1-yl]-3-pyridyl]-3-[3-[[ethyl(methyl)sulfamoyl]amino]-2,6-difluoro-benzoyl]-1H-pyrrolo[2,3-b]pyridine] | 2.13 | 9.51 | – | – |
| CCN(C)S(=O)(=O)Nc1ccc(F)c(C(=O)c2c[nH]c3ncc(-c4ccc(N5CCN(C(=O)CC6(O)CCN(c7ncc(NC8CCC(=O)NC8=O)cc7F)CC6)CC5)nc4)cc23)c1F (stereo not drawn) [Example 80, 5-[6-[4-[2-[1-[5-[(2,6-dioxo-3-piperidyl)amino]-3-fluoro-2-pyridyl]-4-hydroxy-4-piperidyl]acetyl]piperazin-1-yl]-3-pyridyl]-3-[3-[[ethyl(methyl)sulfamoyl]amino]-2,6-difluoro-benzoyl]-1H-pyrrolo[2,3-b]pyridine] | 2.97 | 9.93 | – | – |
| CCN(C)S(=O)(=O)Nc1ccc(F)c(C(=O)c2c[nH]c3ncc(-c4cnc(N5CCN(C(=O)CN6CCC(c7ccc(NC8CCC(=O)NC8=O)cc7)CC6)CC5)c(C#N)c4)cc23)c1F (stereo not drawn) [Example 82, 5-[5-cyano-6-[4-[2-[4-[4-[(2,6-dioxo-3-piperidyl)amino]phenyl]-1-piperidyl]acetyl]piperazin-1-yl]-3-pyridyl]-3-[3-[[ethyl(methyl)sulfamoyl]amino]-2,6-difluoro-benzoyl]-1H-pyrrolo[2,3-b]pyridine] | 7.57 | – | – | 7.6 |
| CCN(C)S(=O)(=O)Nc1ccc(F)c(C(=O)c2c[nH]c3ncc(-c4ccc(N5CCN(C(=O)CN6CCC(c7ccc(NC8CCC(=O)NC8=O)cc7)CC6)CC5)cc4)cc23)c1F (stereo not drawn) [Example 84, 5-[4-[4-[2-[4-[4-[(2,6-dioxo-3-piperidyl)amino]phenyl]-1-piperidyl]acetyl]piperazin-1-yl]phenyl]-3-[3-[[ethyl(methyl)sulfamoyl]amino]-2,6-difluoro-benzoyl]-1H-pyrrolo[2,3-b]pyridine] | 3.14 | – | 9.62 | – |
| CCN(C)S(=O)(=O)Nc1ccc(F)c(C(=O)c2c[nH]c3ncc(-c4ccc(N5CCN(C(=O)CC6(O)CCN(c7ccc(NC8CCC(=O)NC8=O)cc7)CC6)CC5)cc4)cc23)c1F (stereo not drawn) [Example 86, 5-[4-[4-[2-[1-[4-[(2,6-dioxo-3-piperidyl)amino]phenyl]-4-hydroxy-4-piperidyl]acetyl]piperazin-1-yl]phenyl]-3-[3-[[ethyl(methyl)sulfamoyl]amino]-2,6-difluoro-benzoyl]-1H-pyrrolo[2,3-b]pyridine] | 4.29 | 11.8 | – | – |
